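Dose response: 5 concentrations. Exposure: 48 h. Format: 96-well plates. Endpoint: linear interpolation; highest concentration if not reached. GI50: concentration for 50% inhibition of growth. The concentration for full growth arrest is given as TGI.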
Key:
Assay in all cases: NCI-60 cell line screen, 48 h
[1] = tested on: MDA-MB-231 breast
[2] = tested on: OVCAR-5 ovarian
[3] = tested on: HCC-2998 colon
[4] = tested on: BT-549 breast
[5] = tested on: RXF 393 renal
[6] = tested on: PC-3 prostate
[7] = tested on: NCI-H460 lung
[8] = tested on: NCI-H23 lung
[9] = tested on: SN12C renal
[10] = tested on: UACC-62 melanoma
[11] = tested on: HCT-15 colon
[12] = tested on: EKVX NSCLC
[13] = tested on: SNB-19 CNS
[14] = tested on: SK-MEL-5 melanoma
[15] = tested on: SNB-75 CNS
[16] = tested on: IGROV1 ovarian
[17] = tested on: RPMI-8226 leukemia
[18] = tested on: UO-31 renal
[19] = tested on: OVCAR-4 ovarian
[20] = tested on: SK-MEL-2 melanoma
[21] = tested on: TK-10 renal
[22] = tested on: U251 CNS
[23] = tested on: LOX IMVI melanoma
[24] = tested on: SK-MEL-28 melanoma
[25] = tested on: SF-295 CNS
[26] = tested on: KM12 colon
[27] = tested on: OVCAR-8 ovarian
[28] = tested on: NCI/ADR-RES ovarian
[29] = tested on: HOP-92 NSCLC
[30] = tested on: SF-268 CNS
[31] = tested on: OVCAR-3 ovarian
[32] = tested on: MOLT-4 leukemia
[33] = tested on: ACHN renal
[34] = tested on: 786-0 renal
[35] = tested on: K-562 leukemia
[36] = tested on: A498 renal
[37] = tested on: HT29 colon
[38] = tested on: NCI-H226 lung
[39] = tested on: SW-620 colon
[40] = tested on: HS 578T breast
[41] = tested on: COLO 205 colon
[42] = tested on: SR leukemia
[43] = tested on: NCI-H522 lung
[44] = tested on: M14 melanoma
[45] = tested on: DU-145 prostate
[46] = tested on: MCF7 breast
[47] = tested on: HCT-116 colon
[48] = tested on: SK-OV-3 ovarian
[49] = tested on: HL-60(TB) leukemia
[50] = tested on: MDA-MB-435
[51] = tested on: A549 NSCLC
[52] = tested on: SF-539 CNS
[53] = tested on: MALME-3M melanoma
[54] = tested on: UACC-257 melanoma
[55] = tested on: HOP-62 NSCLC
[56] = tested on: CCRF-CEM leukemia
[57] = tested on: T-47D breast
[58] = tested on: CAKI-1 renal

SMILES: C=C1C(=O)O[C@H]2[C@H]1CC/C(COC(=O)c1cccc3ccccc13)=C\CC[C@@]1(C)O[C@@H]21
- GI50 [1]: 1690 nM
- TGI [1]: 3680 nM
- GI50 [2]: 2270 nM
- TGI [2]: 5580 nM
- GI50 [3]: 1980 nM
- TGI [3]: 3760 nM
- GI50 [4]: 1050 nM
- TGI [4]: 2370 nM
- GI50 [5]: 1050 nM
- TGI [5]: 2320 nM
- GI50 [6]: 1570 nM
- TGI [6]: 3140 nM
- GI50 [7]: 2160 nM
- TGI [7]: 4840 nM
- GI50 [8]: 1780 nM
- TGI [8]: 3700 nM
- GI50 [9]: 1730 nM
- TGI [9]: 3670 nM
- GI50 [10]: 1470 nM
- TGI [10]: 2940 nM
- GI50 [11]: 1190 nM
- TGI [11]: 2890 nM
- GI50 [12]: 1810 nM
- TGI [12]: 3940 nM
- GI50 [13]: 1570 nM
- TGI [13]: 3190 nM
- GI50 [14]: 1620 nM
- TGI [14]: 2980 nM
- GI50 [15]: 3040 nM
- TGI [15]: 13300 nM
- GI50 [16]: 1030 nM
- TGI [16]: 2790 nM
- GI50 [17]: 1350 nM
- TGI [17]: 4540 nM
- GI50 [18]: 1440 nM
- TGI [18]: 2760 nM
- GI50 [19]: 1700 nM
- TGI [19]: 3430 nM
- GI50 [20]: 1630 nM
- TGI [20]: 3380 nM
- GI50 [21]: 1850 nM
- TGI [21]: 3420 nM
- GI50 [22]: 1390 nM
- TGI [22]: 2680 nM
- GI50 [23]: 1350 nM
- TGI [23]: 2800 nM
- GI50 [24]: 1820 nM
- TGI [24]: 3640 nM
- GI50 [25]: 2470 nM
- TGI [25]: 10200 nM
- GI50 [26]: 2070 nM
- TGI [26]: 4990 nM
- GI50 [27]: 1700 nM
- TGI [27]: 5420 nM
- GI50 [28]: 2190 nM
- TGI [28]: 6450 nM
- GI50 [29]: 1010 nM
- TGI [29]: 2610 nM
- GI50 [30]: 1600 nM
- TGI [30]: 3380 nM
- GI50 [31]: 1390 nM
- TGI [31]: 2760 nM
- GI50 [32]: 2950 nM
- TGI [32]: 12800 nM
- GI50 [33]: 1520 nM
- TGI [33]: 2860 nM
- GI50 [34]: 1690 nM
- TGI [34]: 3220 nM
- GI50 [35]: 1980 nM
- TGI [35]: 14700 nM
- GI50 [36]: 14500 nM
- TGI [36]: 28400 nM
- GI50 [37]: 696 nM
- TGI [37]: 2420 nM
- GI50 [38]: 1290 nM
- TGI [38]: 2830 nM
- GI50 [39]: 1080 nM
- TGI [39]: 2870 nM
- GI50 [40]: 1980 nM
- TGI [40]: 6010 nM
- GI50 [41]: 1640 nM
- TGI [41]: 3160 nM
- GI50 [42]: 363 nM
- TGI [42]: > 100000 nM
- GI50 [43]: 1660 nM
- TGI [43]: 3220 nM
- GI50 [44]: 1420 nM
- TGI [44]: 3210 nM
- GI50 [45]: 1500 nM
- TGI [45]: 2860 nM
- GI50 [46]: 722 nM
- TGI [46]: 2840 nM
- GI50 [47]: 1230 nM
- TGI [47]: 2530 nM
- GI50 [48]: 11600 nM
- TGI [48]: 23700 nM
- GI50 [49]: 1660 nM
- TGI [49]: 7560 nM
- GI50 [50]: 1530 nM
- TGI [50]: 3350 nM
- GI50 [51]: 2120 nM
- TGI [51]: 5400 nM
- GI50 [52]: 1290 nM
- TGI [52]: 2700 nM
- GI50 [53]: 1760 nM
- TGI [53]: 3660 nM
- GI50 [54]: 1460 nM
- TGI [54]: 2830 nM
- GI50 [55]: 1760 nM
- TGI [55]: 3680 nM
- GI50 [56]: 327 nM
- TGI [56]: 12400 nM

SMILES: COc1cc(-c2nccc3[nH]c(-c4cccc5[nH]ccc45)nc23)cc(OC)c1OC
- GI50 [57]: 4940 nM
- TGI [57]: 27300 nM
- GI50 [1]: < 10 nM
- TGI [1]: 17100 nM
- GI50 [2]: 3890 nM
- TGI [2]: 27600 nM
- GI50 [3]: < 10 nM
- TGI [3]: 2280 nM
- GI50 [6]: < 10 nM
- TGI [6]: 15700 nM
- GI50 [7]: < 10 nM
- TGI [7]: 1110 nM
- GI50 [8]: < 10 nM
- TGI [8]: 19100 nM
- GI50 [9]: < 10 nM
- TGI [9]: 18100 nM
- GI50 [10]: < 10 nM
- TGI [10]: 20900 nM
- GI50 [11]: < 10 nM
- TGI [11]: 12000 nM
- GI50 [12]: 18.6 nM
- TGI [12]: 22000 nM
- GI50 [13]: < 10 nM
- TGI [13]: 20600 nM
- GI50 [14]: < 10 nM
- TGI [14]: 10.8 nM
- GI50 [15]: < 10 nM
- TGI [15]: 16500 nM
- GI50 [16]: < 10 nM
- TGI [16]: 23200 nM
- GI50 [17]: < 10 nM
- TGI [17]: 2910 nM
- GI50 [18]: 124 nM
- TGI [18]: 16200 nM
- GI50 [19]: < 10 nM
- TGI [19]: 16200 nM
- GI50 [20]: < 10 nM
- TGI [20]: 23500 nM
- GI50 [21]: 12100 nM
- TGI [21]: 24800 nM
- GI50 [22]: < 10 nM
- TGI [22]: 13000 nM
- GI50 [23]: < 10 nM
- TGI [23]: 5980 nM
- GI50 [24]: 34.7 nM
- TGI [24]: 15300 nM
- GI50 [26]: < 10 nM
- TGI [26]: 13400 nM
- GI50 [27]: < 10 nM
- TGI [27]: 14100 nM
- GI50 [28]: < 10 nM
- TGI [28]: 18100 nM
- GI50 [29]: < 10 nM
- TGI [29]: 19000 nM
- GI50 [30]: < 10 nM
- TGI [30]: 16000 nM
- GI50 [31]: < 10 nM
- TGI [31]: 11000 nM
- GI50 [32]: < 10 nM
- TGI [32]: 13200 nM
- GI50 [33]: < 10 nM
- TGI [33]: 11600 nM
- GI50 [34]: < 10 nM
- TGI [34]: 2920 nM
- GI50 [58]: < 10 nM
- TGI [58]: 14600 nM
- GI50 [37]: < 10 nM
- TGI [37]: 1260 nM
- GI50 [38]: 4060 nM
- TGI [38]: 22500 nM
- GI50 [39]: < 10 nM
- TGI [39]: 5130 nM
- GI50 [40]: < 10 nM
- TGI [40]: 23900 nM
- GI50 [41]: < 10 nM
- TGI [41]: < 10 nM
- GI50 [42]: < 10 nM
- TGI [42]: 10400 nM
- GI50 [44]: < 10 nM
- TGI [44]: 10100 nM
- GI50 [45]: < 10 nM
- TGI [45]: 15600 nM
- GI50 [46]: < 10 nM
- TGI [46]: 14400 nM
- GI50 [47]: < 10 nM
- TGI [47]: 20.2 nM
- GI50 [48]: < 10 nM
- TGI [48]: 14800 nM
- GI50 [49]: < 10 nM
- TGI [49]: < 10 nM
- GI50 [50]: < 10 nM
- TGI [50]: < 10 nM
- GI50 [51]: < 10 nM
- TGI [51]: 1780 nM
- GI50 [52]: < 10 nM
- TGI [52]: 13.9 nM
- GI50 [53]: 2710 nM
- TGI [53]: 15900 nM
- GI50 [56]: < 10 nM
- TGI [56]: 12000 nM

SMILES: C=CC(=O)N1CC2(CC(n3nc(-c4ccc(Oc5ccccc5)cc4)c4c(N)ncnc43)C2)C1
- GI50 [3]: > 100000 nM
- TGI [3]: > 100000 nM
- GI50 [4]: 1400 nM
- TGI [4]: > 100000 nM
- GI50 [7]: > 100000 nM
- TGI [7]: > 100000 nM
- GI50 [8]: > 100000 nM
- TGI [8]: > 100000 nM
- GI50 [9]: 780 nM
- TGI [9]: > 100000 nM
- GI50 [10]: 1720 nM
- TGI [10]: > 100000 nM
- GI50 [25]: > 100000 nM
- TGI [25]: > 100000 nM
- GI50 [30]: 1430 nM
- TGI [30]: > 100000 nM
- GI50 [58]: 1040 nM
- TGI [58]: > 100000 nM
- GI50 [35]: 1190 nM
- TGI [35]: > 100000 nM
- GI50 [39]: > 100000 nM
- TGI [39]: > 100000 nM
- GI50 [41]: 1460 nM
- TGI [41]: > 100000 nM
- GI50 [42]: 6450 nM
- TGI [42]: > 100000 nM
- GI50 [44]: 2230 nM
- TGI [44]: > 100000 nM
- GI50 [54]: 1970 nM
- TGI [54]: > 100000 nM
